This note sets out measurements from patent US8846671B2, “Heterocyclic alkynyl benzene compounds and medical compositions and uses thereof” (Guangzhou Institute of Biomedicine and Health, Chinese …, priority 2010, dated 2014).

Series [1] deals with K562 (human chronic myelogenous leukemia cell line). Briefly: tumor cell proliferation, MTT or CCK8 assay, 72 h incubation. Format: cell-based. The settings on record: K562, 72 h, read-out: IC50 on tumor cell proliferation, K562; for IC50: MTT or CCK8, nM. How it is done: (§1) The heterocyclic alkynyl benzene compounds at different concentrations (1×10^−10˜1×10^−5M) were incubated for 72 hours individually applied to 6 cell lines K562 (human CML cell line), MOLT-4 (human ALL cell line), U937 (human CML cell line), MEG-01 (human CML cell line), L78 (human lung cancer cell line), Ba/F3-T315I (mice Pro-B cells transformed with Bcr-AblT315I and STI57′-resistant cell line). After incubation for 72 hrs, cell proliferation was then determined by MTT assay or CCK8 assay, and 4 hr incubation is further conducted, the absorbance at 570 nm (CCK8, 450 nm, 650 nm) was measured using enzyme Microplate Reader. […] Based on the inhibition potency of the heterocyclic alkynyl benzene compounds on the cell proliferation, IC50 values were calculated and summarized in the Table 1 and Table 2 (The compounds used were synthesized by Examples 1-40, and the compounds are marked with Drug No. series in Table 1).
On the technique in general: Formazan colour is commonly taken as a measure of viable cells.

The subject of another series is U937 Cell line. The description is as above. Format: cell-based. The settings on record: Homo sapiens, U-937; 72 h, MTT or CCK8; no unit in cell; read-out: IC50 on tumor cell proliferation, U937. The procedure:
as §1

Series [2] concerns the target BAF3-T315I cells (Ba/F3 cell line stably expressing BCR/ABL T315I) (Homo sapiens, UniProt P00519, T315I, cells depend on it). Described as above. It is filed as cell-based, mice. The procedure:
The heterocyclic alkynyl benzene compounds at different concentrations (1×10^−10˜1×10^−5M) were incubated for 72 hours individually applied to 6 cell lines K562 (human CML cell line), MOLT-4 (human ALL cell line), U937 (human CML cell line), MEG-01 (human CML cell line), L78 (human lung cancer cell line), Ba/F3-T315I (mice Pro-B cells transformed with Bcr-AblT315I and STI57′-resistant cell line). After incubation for 72 hrs, cell proliferation was then determined by MTT assay or CCK8 assay, and 4 hr incubation is further conducted, the absorbance at 570 nm (CCK8, 450 nm, 650 nm) was measured using enzyme Microplate Reader.

Series [3] has as its system MOLT-4 (Human acute lymphoblastic leukemia cell line). The description is as above. It is filed as cell-based. The settings on record: MOLT-4, 72 h, read-out: IC50 on tumor cell proliferation, MOLT-4; for IC50: MTT or CCK8, nM. The procedure: as §1
For series [4], the system named is K562R cells (imatinib-resistant cell line). Described as above. The settings on record: Homo sapiens, K-562R, read-out: IC50 on tumor cell proliferation, K562R cells. It is filed as cell-based.
Series [5] can be described thus: Pharmacokinetics and bioavailability in rats. It is filed as in vivo. The settings on record: SD rats; corresponding pharmaceutical acceptable salt forms. How it is done: Pharmacokinetics and bioavailability in rats. […] The blood samples were collected at the proper time points after administration, add heparin-anticoagulant, and the supernatants of the blood samples were collected (3000 rpm, 10 min) and stored at -20° C. for HPLC-MS analysis. After protein-precipitation procedure with acetonitrile, supernatants were collected after 3000 rpm, 10 min for analysis with HPLC-MS. The data were analyzed with software DAS2.0 to separately acquire the parameters of compartment models and non-compartment models. The bioavailability was calculated according to AUC data.

[6] abbreviates: Ba/F3 expressing BCR/ABL T315I, 72 h, Table 1; read-out: IC50 on tumor cell proliferation, BAF3-T315I cells.
Where [7] appears, read: read-out: IC50 on tumor cell proliferation, BAF3-T315I cells; Ba/F3 expressing BCR/ABL T315I, 72 h, Table 1.

pIC50: −log10 of the molar value. Where two headings read alike, the source gives them in different places. Where only a bound is given, the exact number is not on record here.

Take `Cc1ccc(C(=O)Nc2ccc(CN3CC[C@H](N(C)C)C3)c(C(F)(F)F)c2)cc1C#Cc1cnc2[nH]ncc2c1` [D966, (S)-3-(2-(1H-pyrazolo[3,4-b]pyridin-5-yl)ethynyl)-N-(4-((3-(dimethylamino)pyrrolidin-1-yl)methyl)-3-(trifluoromethyl)phenyl)-4-methylbenzamide]: the pIC50 in series [1] (MTT or CCK8, no unit in cell) is 9.49; with U937 Cell line it was 7.73. For the same molecule, in series [2] (setting [6]), the GI50 stood at 13.8 nM.
`Cc1cn(-c2cc(NC(=O)c3ccc(C)c(C#Cc4ccc(N)nc4)c3)cc(C(F)(F)F)c2)cn1` [D827, 3-(2-(6-aminopyridin-3-yl)ethynyl)-4-methyl-N-(3-(4-methyl-1H-imidazol-1-yl)-5-(trifluoromethyl)phenyl)benzamide]: the IC50 in series [1] worked out at 2.68 nM; in series [3], 1850 nM. The GI50 in series [2] (setting [6]) was 29.8 nM. Moreover, the pIC50 in series [4] (imatinib-resistant K562R) was 7.23.
On to `Cc1ccc(C(=O)Nc2ccc(CN3CCN(C)CC3)c(C(F)(F)F)c2)cc1C#Cc1cnc2[nH]ncc2c1` [D824, 3-(2-(1H-pyrazolo[3,4-b]pyridin-5-yl)ethynyl)-4-methyl-N-(4-((4-methylpiperazin-1-yl)methyl)-3-(trifluoromethyl)phenyl)benzamide], for which the IC50 in series [1] was 0.494 nM; in series [3] it was over 100 nM. For the same molecule, the GI50 in series [2] (setting [7]) came to 1.65 nM. The pIC50 in series [4] (imatinib-resistant K562R) was 7.85. Also, in series [5], the “pharmacokinetics parameters, overall judgement” value (shortened to “pharmacokinetics parameters”) was “adequate pharmacokinetics parameters”.
Take `Cc1ccc(C(=O)Nc2ccc(CN3CC[C@@H](N(C)C)C3)c(C(F)(F)F)c2)cc1C#Cc1cnc2ccnn2c1` [D943]: the pIC50 is 8.08 in series [1] (MTT or CCK8, no unit in cell); 5.79 in series [3] (MTT or CCK8, no unit in cell); 5.67 with U937 Cell line; 6.50 in series [4] (imatinib-resistant K562R). Moreover, in series [2] (setting [6]), the GI50 came out at 618 nM.
In the case of `Cc1cn(-c2cc(NC(=O)c3ccc(C)c(C#Cc4cnc(NC[C@H](O)CO)nc4)c3)cc(C(F)(F)F)c2)cn1` [D834, 3-(2-(2-((S)-2,3-dihydroxypropylamino)pyrimidin-5-yl)ethynyl)-4-methyl-N-(3-(4-methyl-1H-imidazol-1-yl)-5-(trifluoromethyl)phenyl)benzamide], the IC50 in series [1] is 8.7 nM; in series [3] it was over 100 nM. Besides, the GI50 in series [2] (setting [6]) turned out to be 215 nM. For the same molecule, in series [4] (imatinib-resistant K562R), the pIC50 is 6.72.
Take `Cc1ccc(C(=O)Nc2ccc(CN3CC[C@@H](N(C)C)C3)c(C(F)(F)F)c2)cc1C#Cc1cnc2[nH]ncc2c1` [D965, (R)-3-(2-(1H-pyrazolo[3,4-b]pyridin-5-yl)ethynyl)-N-(4-((3-(dimethylamino)pyrrolidin-1-yl)methyl)-3-(trifluoromethyl)phenyl)-4-methylbenzamide]: the pIC50 in series [1] (MTT or CCK8, no unit in cell) is 9.23; in the series on U937 Cell line, 6.09; in series [4] (imatinib-resistant K562R) it was 8.24. The GI50 in series [2] (setting [6]) came out at 6.87 nM.
As to `Cc1ncn(-c2cc(NC(=O)c3ccc(C)c(C#Cc4cnc5[nH]ncc5c4)c3)cc(C(F)(F)F)c2)n1` [D835, 3-(2-(1H-pyrazolo[3,4-b]pyridin-5-yl)ethynyl)-4-methyl-N-(3-(3-methyl-1H-1,2,4-triazol-1-yl)-5-(trifluoromethyl)phenyl)benzamide], the values for the IC50 in series [1] and in series [3] were 0.402 nM and over 100 nM, respectively. The GI50 in series [2] (setting [6]) stood at 8.58 nM. The pIC50 in series [4] (imatinib-resistant K562R) is 7.59.
Consider `Cc1cn(-c2cc(Cl)cc(NC(=O)c3ccc(C)c(C#Cc4cnc5[nH]ncc5c4)c3)c2)cn1` [D964, 3-(2-(1H-pyrazolo[3,4-b]pyridin-5-yl)ethynyl)-N-(3-chloro-5-(4-methyl-1H-imidazol-1-yl)phenyl)-4-methylbenzamide], for which the pIC50 is 9.03 in series [1] (MTT or CCK8, no unit in cell); under 6.00 in the series on U937 Cell line; 7.49 in series [4] (imatinib-resistant K562R). Further, the GI50 in series [2] (setting [6]) is 24.2 nM.
As to `Cc1ccc(C(=O)Nc2ccc(CN3CCN(C)CC3)c(C(F)(F)F)c2)cc1C#Cc1cnc(NC2CC2)nc1` [D825, 3-(2-(2-(cyclopropylamino)pyrimidin-5-yl)ethynyl)-4-methyl-N-(4-((4-methylpiperazin-1-yl)methyl)-3-(trifluoromethyl)phenyl)benzamide], the IC50 in series [1] is 1.88 nM; in series [3], 92.9 nM. The GI50 in series [2] (setting [6]) stood at 15.7 nM. The pIC50 in series [4] (imatinib-resistant K562R) is 7.30. In series [5], the “pharmacokinetics parameters” value was “adequate pharmacokinetics parameters”.
Turning to `Cc1cn(-c2cc(NC(=O)c3ccc(C)c(C#Cc4cnc(NC5CCCCC5)nc4)c3)cc(C(F)(F)F)c2)cn1` [D828, 3-(2-(2-(cyclohexylamino)pyrimidin-5-yl)ethynyl)-4-methyl-N-(3-(4-methyl-1H-imidazol-1-yl)-5-(trifluoromethyl)phenyl)benzamide], the pIC50 in series [1] is 7.51; in series [3], under 7.00; in series [4], 5.51. For the same molecule, in series [2] (setting [7]), the GI50 was 2480 nM.
As for `Cc1ccc(C(=O)Nc2cccc(C(F)(F)F)c2)cc1C#Cc1cnc2[nH]ncc2c1` [D821, 3-(2-(1H-pyrazolo[3,4-b]pyridin-5-yl)ethynyl)-4-methyl-N-(3-(trifluoromethyl)phenyl)benzamide], the IC50 in series [1] was 0.724 nM; in series [3], over 100 nM. For the same molecule, the GI50 in series [2] (setting [6]) amounted to 19.5 nM. The pIC50 in series [4] (imatinib-resistant K562R) was 7.24.
Regarding `Cc1cn(-c2cc(NC(=O)c3ccc(C)c(C#Cc4cnc5[nH]ncc5c4)c3)cc(C(C)(C)C)c2)cn1` [D968, 3-(2-(1H-pyrazolo[3,4-b]pyridin-5-yl)ethynyl)-N-(3-tert-butyl-5-(4-methyl-1H-imidazol-1-yl)phenyl)-4-methylbenzamide], the pIC50 in series [1] (MTT or CCK8, no unit in cell) is 9.15; in the series on U937 Cell line, under 6.00; in series [4] (imatinib-resistant K562R) it was 7.49. Moreover, the GI50 in series [2] (setting [6]) is 6.36 nM.
As to `Cc1cn(-c2cccc(NC(=O)c3ccc(C)c(C#Cc4cnc5[nH]ncc5c4)c3)c2)cn1` [D967, 3-(2-(1H-pyrazolo[3,4-b]pyridin-5-yl)ethynyl)-4-methyl-N-(3-(4-methyl-1H-imidazol-1-yl)phenyl)benzamide], the pIC50 in series [1] (MTT or CCK8, no unit in cell) is 9.50; in the series with U937 Cell line it was 5.23; in series [4] (imatinib-resistant K562R), 6.68. For the same molecule, the GI50 in series [2] (setting [6]) amounted to 798 nM.
Turning to `Cc1cn(-c2cc(NC(=O)c3ccc(C)c(C#Cc4cnc5ccnn5c4)c3)cc(C(F)(F)F)c2)cn1` [D822, 4-methyl-N-(3-(4-methyl-1H-imidazol-1-yl)-5-(trifluoromethyl)phenyl)-3-(2-(pyrazolo[1,5-a]pyrimidin-6-yl)ethynyl)benzamide], the IC50 was 4.34 nM in series [1] and over 100 nM in series [3]. In series [2] (setting [6]), the GI50 is 1100 nM. Also, in series [4] (imatinib-resistant K562R), the pIC50 was 6.24. Further, in series [5], the “pharmacokinetics parameters” value was “adequate pharmacokinetics parameters”.
For `Cc1cn(-c2cc(F)cc(NC(=O)c3ccc(C)c(C#Cc4cnc5[nH]ncc5c4)c3)c2)cn1` [D963, 3-(2-(1H-pyrazolo[3,4-b]pyridin-5-yl)ethynyl)-N-(3-fluoro-5-(4-methyl-1H-imidazol-1-yl)phenyl)-4-methylbenzamide], the pIC50 in series [1] (MTT or CCK8, no unit in cell) was 9.00; with U937 Cell line, under 6.00; in series [4] (imatinib-resistant K562R), 7.12. Besides, the GI50 in series [2] (setting [6]) turned out to be 243 nM.
In the case of `Cc1ccc(C(=O)Nc2cc(-n3ccnc3)cc(C(F)(F)F)c2)cc1C#Cc1cnc2[nH]ncc2c1` [D831, N-(3-(1H-imidazol-1-yl)-5-(trifluoromethyl)phenyl)-3-(2-(1H-pyrazolo[3,4-b]pyridin-5-yl)ethynyl)-4-methylbenzamide], the IC50 came to 0.466 nM in series [1] and 7130 nM in series [3]. For the same molecule, the GI50 in series [2] (setting [6]) turned out to be 36.8 nM. Further, in series [4] (imatinib-resistant K562R), the pIC50 is 7.27. For the same molecule, the “pharmacokinetics parameters” value in series [5] is given as “adequate pharmacokinetics parameters”.
